According to patent publication US12528790B2, “Amide derivative having antiviral activity” (Shionogi & Co., Ltd., priority 2020, dated 2026):
Read-outs that look alike come from different tables or passages of the source.

What was measured:
RSV A2 strain = experiment: In vitro CPE (CytoPathic Effect) inhibition effect evaluation test, RSV type A; type: cell-based; settings: human respiratory syncytial virus
Outline: (§1)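 EC50 is the concentration giving 50% inhibition of virus-induced cytopathic effect, fitted by nonlinear regression from CellTiter-Glo 2.0 viability. Compounds in 3-fold series were co-incubated at 37 °C with HEp-2 cells and RSV: A2 strain for 4 days, B (Wash/18537) for 5 days; uninfected wells served as control.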

[1] = tested on: RSV B (Wash/18537 strain); experiment: In vitro CPE (CytoPathic Effect) inhibition effect evaluation test, RSV type B; type: cell-based; settings: human respiratory syncytial virus
Outline: as §1

[2] = inhibitory effect against RSV type A (RSV A2 strain), HEp-2 cells, CPE inhibition, read-out: EC50
[3] = inhibitory effect against RSV type B, CPE inhibition, read-out: EC50
[4] = HEp-2, 96 h, read-out: EC50, inhibitory effect against RSV type A (CPE inhibition)
[5] = HEp-2, 120 h, HEp-2 cells, RSV B (Wash/18537 strain), 5 days, CellTiter-Glo, read-out: EC50, inhibitory effect against RSV type B (CPE inhibition)

| Structure (SMILES) | EC50 (RSV A2 strain; [2]) | EC50 [1, 3] | EC50 (RSV A2 strain; [4]) | EC50 [1, 5] |
| --- | --- | --- | --- | --- |
| O=C(NC1(C(=O)O)C2CC3CC(C2)CC1C3)c1cnc(N2CC3(CCOCC3)c3cc(OC4CCN(c5ncc(F)cn5)CC4)ccc32)nc1C(F)(F)F (centres unmarked) [Compound I-275] | < 10 nM | < 10 nM | – | – |
| CC(F)(F)c1nc(N2CC3(CCOCC3)c3cc(OC4CCN(C5CC(F)(F)C5)CC4)ccc32)ncc1C(=O)NC1(C(=O)O)C2CC3CC(C2)CC1C3 (centres unmarked) [Compound I-551] | < 10 nM | < 10 nM | – | – |
| COC1(C)CCC(Oc2ccc3c(-c4ncc(C(=O)NC5(C(=O)O)C6CC7CC(C6)CC5C7)c(C(F)(F)F)n4)cn(C4CCC(F)(F)CC4)c3c2)CC1 (centres unmarked) [Compound I-445] | < 10 nM | < 10 nM | – | – |
| O=C(NC1(C(=O)O)C2CC3CC(C2)CC1C3)c1cnc(N2CC3(CCOC3)c3cc(OCC(F)(F)F)ccc32)nc1C(F)(F)F (racemic) [Compound I-466] | < 10 nM | 10 to 100 nM | – | – |
| CC(F)(F)c1nc(N2CC3(CCOCC3)c3cc(OC4CCN(CC5COC5)CC4)ccc32)ncc1C(=O)NC1(C(=O)O)C2CC3CC(C2)CC1C3 (centres unmarked) [Compound I-532] | < 10 nM | 10 to 100 nM | – | – |
| CC(F)(F)CN1CCC(Oc2ccc3c(-c4ncc(C(=O)NC5(C(=O)O)C6CC7CC(C6)CC5C7)c(C(F)(F)F)n4)cn(C4CC4)c3c2)CC1 (centres unmarked) [Compound I-544] | < 10 nM | 10 to 100 nM | – | – |
| O=C(NC1(C(=O)O)C2CC3CC(C2)CC1C3)c1cnc(N2CC3(CCCCC3)c3cc(C(=O)N4CCN(CC(F)(F)F)CC4)ccc32)nc1C(F)(F)F (centres unmarked) [Compound I-505] | < 10 nM | < 10 nM | – | – |
| O=C(NC1(C(=O)O)C2CC3CC(C2)CC1C3)c1cnc(-c2c3ccc(OC4CCN(c5ncccn5)CC4)cc3nn2C2CCOCC2)nc1C(F)(F)F (centres unmarked) [Compound I-182] | – | – | 0.39 nM | 2.1 nM |
| CC(F)(F)c1nc(N2CC3(CC3)c3cc(OC4CCN(c5ncc(F)cn5)CC4)ccc32)ncc1C(=O)NC1(C(=O)O)C2CC3CC(C2)CC1C3 (centres unmarked) [Compound I-603] | < 10 nM | < 10 nM | – | – |
| COCCCCOc1ccc2c(c1C)CCN2c1ncc(C(=O)NC2(C(=O)O)CCCCC2)c(C(F)(F)F)n1 [Compound I-1] | 10 to 100 nM | 100 to 5000 nM | – | – |
| N#CCCCCOc1ccc2c(c1)CCN2c1ncc(C(=O)NC2(C(=O)O)CCCCC2)c(C(F)(F)F)n1 [Compound I-5] | 10 to 100 nM | 100 to 5000 nM | – | – |
| O=C(NC1(C(=O)O)C2CC3CC(C2)CC1C3)c1ccc(-c2cn(C3CCC(F)(F)CC3)c3cc(OC4CCN(c5ncccn5)CC4)ccc23)nc1C(F)(F)F (centres unmarked) [Compound I-162] | – | – | 0.88 nM | 3.3 nM |
| O=C(NC1(C(=O)O)C2CC3CC(C2)CC1C3)c1cnc(N2CC3(CCCC3)c3cc(OC4CCN(C5CC(F)(F)C5)CC4)ccc32)nc1C(F)(F)F (centres unmarked) [Compound I-502] | < 10 nM | 10 to 100 nM | – | – |
| COc1cccc(COc2ccc3c(c2)CCN3c2ncc(C(=O)NC3(C(=O)O)CCCCC3)c(C(F)(F)F)n2)c1 [Compound I-3] | 10 to 100 nM | 10 to 100 nM | – | – |
| O=C(NC1(C(=O)O)CCCCC1)c1cnc(N2CCc3cc(OCCC4CCOCC4)ccc32)nc1C(F)(F)F [Compound I-8] | 10 to 100 nM | 10 to 100 nM | – | – |
| CC(F)(F)c1nc(N2CC3(CCOCC3)c3cc(OC4CCN(C5CSC5)CC4)ccc32)ncc1C(=O)NC1(C(=O)O)C2CC3CC(C2)CC1C3 (centres unmarked) [Compound I-564] | < 10 nM | < 10 nM | – | – |
| C/C(=N\OC1CC(F)(F)C1)c1ccc2c(c1)C1(CCCCC1)CN2c1ncc(C(=O)NC2(C(=O)O)C3CC4CC(C3)CC2C4)c(C(F)(F)F)n1 (single isomer, unassigned) [Compound I-477] | 10 to 100 nM | 100 to 5000 nM | – | – |
| CC(=O)N1CC(N2CCC(Oc3ccc4c(c3)C3(CCCCC3)CN4c3ncc(C(=O)NC4(C(=O)O)C5CC6CC(C5)CC4C6)c(C(F)(F)F)n3)CC2)C1 (centres unmarked) [Compound I-492] | < 10 nM | 10 to 100 nM | – | – |
| O=C(NC1(C(=O)O)C2CC3CC(C2)CC1C3)c1ccc(-c2cn(C3CCOCC3)c3cc(OC4CCN(c5ncccn5)CC4)ccc23)nc1C(F)(F)F (centres unmarked) [Compound I-147] | < 10 nM | < 10 nM | – | – |
